The subject of the experiment is BDF1 mice, P388 leukemia ip, median survival T/C. Nature of the experiment: NCI In Vivo Anticancer Drug Screen. Data for tumor model P388 Leukemia (intraperitoneal) in B6D2F1 (BDF1) mice. The note with it: endpoint: median survival time, higher = longer survival. An outline of the steps: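 Transplantable tumour in mice; compound vs vehicle dosing; survival scored; ratio of treated to control reported.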

The mark [1] stands for this setting: dose: 50.0 mg/kg/injection, schedule: Q01DX009 (ip), vehicle: saline with Tween-80.
Where [2] appears, read: dose: 100.0 mg/kg/injection, schedule: Q01DX009 (ip), vehicle: saline with Tween-80.
The mark [3] stands for this setting: dose: 200.0 mg/kg/injection, schedule: Q01DX009 (ip), vehicle: saline with Tween-80.
Setting [4] is: dose: 100.0 mg/kg/injection, schedule: Q01DX009 (ip), vehicle: Klucel (hydroxypropylcellulose) (HPC).
Where [5] appears, read: dose: 200.0 mg/kg/injection, schedule: Q01DX009 (ip), vehicle: Klucel (hydroxypropylcellulose) (HPC).
The mark [6] stands for this setting: dose: 400.0 mg/kg/injection, schedule: Q01DX009 (ip), vehicle: Klucel (hydroxypropylcellulose) (HPC).
The mark [7] stands for this setting: dose: 25.0 mg/kg/injection, schedule: Q01DX009 (ip), vehicle: Klucel (hydroxypropylcellulose) (HPC).
Setting [8] is: dose: 50.0 mg/kg/injection, schedule: Q01DX009 (ip), vehicle: Klucel (hydroxypropylcellulose) (HPC).
Setting [9] is: dose: 50.0 mg/kg/injection, schedule: Q04DX003 (ip), vehicle: Klucel (hydroxypropylcellulose) (HPC).
[10] abbreviates: dose: 100.0 mg/kg/injection, schedule: Q04DX003 (ip), vehicle: Klucel (hydroxypropylcellulose) (HPC).
The mark [11] stands for this setting: dose: 200.0 mg/kg/injection, schedule: Q04DX003 (ip), vehicle: Klucel (hydroxypropylcellulose) (HPC).

Where “and” joins values, the source holds several entries; their conditions need not be identical. Equal entries are not always repeated. Toxic doses and inconclusive results are not listed.

Consider `C[C@@H]1C[C@@H]([C@H](O)CC2CC(=O)NC(=O)C2)C(=O)[C@@H](C)C1`, for which the T/C is 100 % of control and 104 % of control (dose: 5.0 mg/kg/injection, schedule: Q01DX010 (ip), vehicle: saline); 90 % of control and 114 % of control (dose: 10.0 mg/kg/injection, schedule: Q01DX010 (ip), vehicle: saline); 100 % of control (dose: 15.0 mg/kg/injection, schedule: Q01DX009 (ip), vehicle: Klucel (hydroxypropylcellulose) (HPC)); 100 % of control (2×) and 119 % of control (dose: 20.0 mg/kg/injection, schedule: Q01DX010 (ip), vehicle: saline); 90 % of control (dose: 30.0 mg/kg/injection, schedule: Q01DX009 (ip), vehicle: Klucel (hydroxypropylcellulose) (HPC)); 114 % of control (dose: 39.9 mg/kg/injection, schedule: Q04DX003 (ip), vehicle: Klucel (hydroxypropylcellulose) (HPC)). The T/C is 110 % of control (dose: 39.9 mg/kg/injection, schedule: Q04DX003 (sc), vehicle: Klucel (hydroxypropylcellulose) (HPC)); 115 % of control and 118 % of control (dose: 40.0 mg/kg/injection, schedule: Q01DX010 (ip), vehicle: saline); 121 % of control (dose: 50.0 mg/kg/injection, schedule: Q04DX003 (ip), vehicle: other); 90 % of control (dose: 60.0 mg/kg/injection, schedule: Q01DX009 (ip), vehicle: Klucel (hydroxypropylcellulose) (HPC)); 168 % of control (dose: 60.0 mg/kg/injection, schedule: Q01DX010 (ip), vehicle: saline); 118 % of control (dose: 60.0 mg/kg/injection, schedule: Q04DX003 (ip), vehicle: Klucel (hydroxypropylcellulose) (HPC)). Further, the T/C (dose: 64.8 mg/kg/injection, schedule: Q01DX001 (sc), vehicle: Klucel (hydroxypropylcellulose) (HPC)) was 108 % of control; the T/C (dose: 64.8 mg/kg/injection, schedule: Q04DX003 (ip), vehicle: Klucel (hydroxypropylcellulose) (HPC)) was 119 % of control; the T/C (dose: 64.8 mg/kg/injection, schedule: Q04DX003 (sc), vehicle: Klucel (hydroxypropylcellulose) (HPC)) was 107 % of control; the T/C (dose: 100.0 mg/kg/injection, schedule: Q04DX003 (ip), vehicle: other) was 178 % of control; the T/C (dose: 108.0 mg/kg/injection, schedule: Q01DX001 (ip), vehicle: Klucel (hydroxypropylcellulose) (HPC)) was 109 % of control; the T/C (dose: 108.0 mg/kg/injection, schedule: Q01DX001 (sc), vehicle: Klucel (hydroxypropylcellulose) (HPC)) is 110 % of control. The T/C by setting is: (dose: 108.0 mg/kg/injection, schedule: Q04DX003 (ip), vehicle: Klucel (hydroxypropylcellulose) (HPC)) 118 % of control; (dose: 108.0 mg/kg/injection, schedule: Q04DX003 (sc), vehicle: Klucel (hydroxypropylcellulose) (HPC)) 96 % of control; (dose: 120.0 mg/kg/injection, schedule: Q04DX003 (ip), vehicle: Klucel (hydroxypropylcellulose) (HPC)) 90 % of control; (dose: 180.0 mg/kg/injection, schedule: Q01DX001 (ip), vehicle: Klucel (hydroxypropylcellulose) (HPC)) 108 % of control; (dose: 180.0 mg/kg/injection, schedule: Q01DX001 (sc), vehicle: Klucel (hydroxypropylcellulose) (HPC)) 116 % of control; (dose: 180.0 mg/kg/injection, schedule: Q04DX003 (ip), vehicle: Klucel (hydroxypropylcellulose) (HPC)) 98 % of control. Moreover, the T/C (dose: 200.0 mg/kg/injection, schedule: Q04DX003 (ip), vehicle: other) is 97 % of control; the T/C (dose: 300.0 mg/kg/injection, schedule: Q01DX001 (ip), vehicle: Klucel (hydroxypropylcellulose) (HPC)) is 114 % of control; the T/C (dose: 300.0 mg/kg/injection, schedule: Q01DX001 (sc), vehicle: Klucel (hydroxypropylcellulose) (HPC)) is 118 % of control.
Consider `O=C1CC(SC(=S)C2CCCC2=O)C(=O)N1` (configuration not stated), for which the T/C is 100 % of control under setting [1], 110 % of control under setting [2] and 89 % of control under setting [3].
As to `COC(=O)/C=C/c1ccc(Cl)cc1`, the T/C reads like this: under setting [4], 95 % of control; under setting [5], 95 % of control; under setting [6], 91 % of control.
With `O=C(Nc1cccc(C(F)(F)F)c1)C12CC3CC(CC(C3)C1)C2`, the T/C runs as follows: (dose: 12.5 mg/kg/injection, schedule: Q01DX009 (ip), vehicle: saline with Tween-80) 92 % of control; under setting [1], 87 % of control; under setting [2], 90 % of control.
As to `CN(C)CCNc1ccc([N+](=O)[O-])c2sc3ccccc3c(=O)c12`, the T/C by setting is: (dose: 7.5 mg/kg/injection, schedule: Q01DX009 (ip), vehicle: Klucel (hydroxypropylcellulose) (HPC)) 107 % of control; (dose: 11.0 mg/kg/injection, schedule: Q01DX009 (ip), vehicle: Klucel (hydroxypropylcellulose) (HPC)) 115 % of control; (dose: 12.5 mg/kg/injection, schedule: Q04DX003 (ip), vehicle: Klucel (hydroxypropylcellulose) (HPC)) 108 % of control; (dose: 17.0 mg/kg/injection, schedule: Q01DX009 (ip), vehicle: Klucel (hydroxypropylcellulose) (HPC)) 108 % of control; under setting [7], 157 % of control and 166 % of control; (dose: 25.0 mg/kg/injection, schedule: Q04DX003 (ip), vehicle: Klucel (hydroxypropylcellulose) (HPC)) 116 % of control. Also, the T/C reads like this: (dose: 37.0 mg/kg/injection, schedule: Q01DX009 (ip), vehicle: Klucel (hydroxypropylcellulose) (HPC)) 92 % of control and 108 % of control; under setting [8], 91 % of control; under setting [9], 162 % of control.
Take `Cc1n[nH]c(=O)[nH]c1=O`: the T/C is, setting by setting: (dose: 12.5 mg/kg/injection, schedule: Q01DX009 (ip), vehicle: Klucel (hydroxypropylcellulose) (HPC)) 100 % of control; under setting [7], 109 % of control; under setting [8], 100 % of control; under setting [4], 91 % of control.
On to `COC(=O)C1OC1c1ccccc1` (configuration not stated), for which the T/C under setting [4] was 100 % of control; the T/C under setting [10] is 95 % of control; the T/C under setting [5] was 100 % of control; the T/C under setting [11] is 95 % of control; the T/C under setting [6] is 100 % of control; the T/C (dose: 400.0 mg/kg/injection, schedule: Q04DX003 (ip), vehicle: Klucel (hydroxypropylcellulose) (HPC)) is 95 % of control.
Take `CC(=O)NC1C([Se][As](C)C)OC(COC(C)=O)C(OC(C)=O)C1OC(C)=O` (configuration not stated): the T/C was 116 % of control (dose: 6.25 mg/kg/injection, schedule: Q01DX009 (ip), vehicle: saline with Tween-80) and 115 % of control (dose: 25.0 mg/kg/injection, schedule: Q01DX009 (ip), vehicle: saline with Tween-80).
Consider `Cc1nc2c(sc(=N)n2-c2ccccc2)c(=O)[nH]1`, for which the T/C under setting [1] was 114 % of control.
Regarding `C1CC[N-]CC1.C1CC[N-]CC1.C1CC[N-]CC1.C1CC[N-]CC1.CC(=N\[O-])/C(C)=N/O.CC(=N\[O-])/C(C)=N/O.[Cl-].[Cl-].[Cl][Rh][Cl].[Rh+3]`, the T/C runs as follows: (dose: 50.0 mg/kg/injection, schedule: Q01DX009 (ip), vehicle: saline) 98 % of control; (dose: 100.0 mg/kg/injection, schedule: Q01DX009 (ip), vehicle: saline) 86 % of control; (dose: 200.0 mg/kg/injection, schedule: Q01DX009 (ip), vehicle: saline) 86 % of control; (dose: 400.0 mg/kg/injection, schedule: Q01DX009 (ip), vehicle: saline) 95 % of control.
As to `C1CC2CCC[N]3C2C(C1)[O][Pb]31[O]C2CCCC3CCC[N]1C32` (configuration not stated), the T/C runs as follows: (dose: 133.0 mg/kg/injection, schedule: Q04DX003 (ip), vehicle: saline with Tween-80) 96 % of control and 100 % of control; (dose: 200.0 mg/kg/injection, schedule: Q04DX003 (ip), vehicle: saline with Tween-80) 100 % of control and 104 % of control; (dose: 300.0 mg/kg/injection, schedule: Q04DX003 (ip), vehicle: saline with Tween-80) 95 % of control and 104 % of control.
As to `O=C(O)c1cc(O)c(Br)c(O)c1`, the T/C is, setting by setting: (dose: 100.0 mg/kg/injection, schedule: Q01DX001 (ip), vehicle: saline with Tween-80) 109 % of control; (dose: 200.0 mg/kg/injection, schedule: Q01DX001 (ip), vehicle: saline with Tween-80) 100 % of control; (dose: 400.0 mg/kg/injection, schedule: Q01DX001 (ip), vehicle: saline with Tween-80) 104 % of control.
In the case of `C=CCNC(=S)Nc1ccc(C)cc1`, the T/C reads like this: under setting [9], 112 % of control; under setting [10], 104 % of control; under setting [11], 91 % of control.
Consider `O=C1NN(CCO)C(=S)Nc2ccccc21`, for which the T/C under setting [8] was 100 % of control, the T/C under setting [4] was 100 % of control and the T/C under setting [5] is 90 % of control.
For `CCCCCC#CC1OC12CCCCC2` (configuration not stated), the T/C by setting is: under setting [1], 124 % of control; under setting [2], 119 % of control; under setting [3], 102 % of control.

(Values after PubChem BioAssay AID328 (DTP/NCI, 2004).)
